In patent US8653114B2, “O-cyclopropylcyclohexyl-carboxanilides and their use as fungicides” (priority 2010, dated 2014):
Like-named read-outs stand apart in the source and are kept apart here.

Assays:
[1] = log P by HPLC on reversed phase columns (EEC directive 79/831 Annex V.A8); format: physicochemical; details: for chromatographic logP: reversed phase HPLC columns
Description: Measurement of log P values was performed according EEC directive 79/831 Annex V.A8 by HPLC (High Performance Liquid Chromatography) on reversed phase columns with the following methods:
^[b] measurement of LC-MS was done at pH 2.7 with 0.1% formic acid in water and with acetonitrile (contains 0.1% formic acid) as eluent with a linear gradient from 10% acetonitrle to 95% acetonitrile.

Sphaerotheca fuliginea = assay: Sphaerotheca test (cucumber) / preventive; format: in vivo; details: 500 ppm of active ingredient, evaluated 7 days after inoculation
Description: (§1) Sphaerotheca Test (Cucumber)/Preventive [table] To produce a suitable preparation of active compound, 1 part by weight of active compound is mixed with the stated amounts of solvent and emulsifier, and the concentrate is diluted with water to the desired concentration. To test for preventive activity, young plants are sprayed with the preparation of active compound at the stated rate of application. One day after this treatment, the plants are inoculated with an aqueous spore suspension of Sphaerotheca fuliginea. Then the plants are placed in a greenhouse at approximately 23° C. and a relative atmospheric humidity of approximately 70%.

Alternaria solani = assay: Alternaria test (tomato) / preventive; format: in vivo; details: 500 ppm of active ingredient, evaluated 7 days after inoculation
Description: as §1, with “Alternaria” for “Sphaerotheca”, “(Tomato)/Preventive” for “(Cucumber)/Preventive”, “Alternaria solani.” for “Sphaerotheca fuliginea. Then the plants are placed in a greenhouse at approximately 23° C. and a relative atmospheric humidity of approximately 70%.”

Pyrenophora teres = assay: Pyrenophora test (barley) / preventive; format: in vivo; details: 500 ppm of active ingredient, evaluated 7-9 days after inoculation
Description: as §1, with “Pyrenophora” for “Sphaerotheca”, “(Barley)/Preventive” for “(Cucumber)/Preventive”, “Pyrenophora teres.” for “Sphaerotheca fuliginea. Then the plants are placed in a greenhouse at approximately 23° C. and a relative atmospheric humidity of approximately 70%.”

Podosphaera leucotricha = assay: Podosphaera test (apples) / preventive; format: in vivo; details: 100 ppm of active ingredient, evaluated 10 days after inoculation
Description: Podosphaera Test (Apples)/Preventive [table] To produce a suitable preparation of active compound, 1 part by weight of active compound is mixed with the stated amounts of solvent and emulsifier, and the concentrate is diluted with water to the desired concentration. To test for preventive activity, young plants are sprayed with the preparation of active compound at the stated rate of application. After the spray coating has dried on, the plants are inoculated with an aqueous spore suspension of the causal agent of apple mildew (Podosphaera leucotricha). The plants are then placed in a greenhouse at approximately 23° C. and a relative atmospheric humidity of approximately 70%.

Venturia inaequalis = assay: Venturia test (apples) / preventive; format: in vivo; details: 100 ppm of active ingredient, evaluated 10 days after inoculation
Description: Venturia Test (Apples)/Preventive [table] To produce a suitable preparation of active compound, 1 part by weight of active compound is mixed with the stated amounts of solvent and emulsifier, and the concentrate is diluted with water to the desired concentration. To test for preventive activity, young plants are sprayed with the preparation of active compound at the stated rate of application.

[2] = system: Blumeria graminis f. sp. hordei; assay: Blumeria test (barley) / preventive; format: in vivo; details: 500 ppm of active ingredient, evaluated 7 days after inoculation
Description: (§2) Blumeria Test (Barley)/Preventive [table] To produce a suitable preparation of active compound, 1 part by weight of active compound or active compound combination is mixed with the stated amounts of solvent and emulsifier, and the concentrate is diluted with water to the desired concentration. To test for preventive activity, young plants are sprayed with the preparation of active compound or active compound combination at the stated rate of application. After the spray coating has been dried, the plants are dusted with spores of Blumeria graminis f. sp. hordei.

Septoria tritici = assay: Septoria tritici-test (wheat) / preventive; format: in vivo; details: 500 ppm of active ingredient, evaluated 21 days after inoculation
Description: as §2, with “Septoria tritici-Test (Wheat)/Preventive” for “Blumeria Test (Barley)/Preventive”, “sprayed” for “dusted”, “a spore suspension” for “spores”, “Septoria tritici.” for “Blumeria graminis f. sp. hordei.”

Puccinia triticina = assay: Puccinia triticina-test (wheat) / preventive; format: in vivo; details: 500 ppm of active ingredient, evaluated 8 days after inoculation
Description: as §2, with “Puccinia triticina-Test (Wheat)/Preventive” for “Blumeria Test (Barley)/Preventive”, “sprayed” for “dusted”, “a spore suspension” for “spores”, “Puccinia triticina.” for “Blumeria graminis f. sp. hordei.”

[3] = system: Fusarium nivale (var. majus); assay: Fusarium nivale (var. majus)-test (wheat) / preventive; format: in vivo; details: 500 ppm of active ingredient, evaluated 5 days after inoculation
Description: as §2, with “Fusarium nivale (var. majus)-Test (Wheat)/Preventive” for “Blumeria Test (Barley)/Preventive”, “slightly injured by using a sandblast and afterwards they are sprayed” for “dusted”, “a conidia suspension” for “spores”, “Fusarium nivale (var. majus).” for “Blumeria graminis f. sp. hordei.”

| chromatographic logP ([1]; pH 2.7, HPLC/LC-MS at pH 2.7, 0.1% formic acid in water / acetonitrile gradient, read-out: Log P[b]) | chromatographic logP ([1]; pH 2.7, acid, product isolated with a purity of 87% LC-MS, read-out: log P (acid)) | Log P[b] ([1]; HPLC/LC-MS at pH 2.7, 0.1% formic acid in water / acetonitrile gradient) | SMILES | Eff. % (Sphaerotheca fuliginea) [%] | Eff. % (Alternaria solani) [%] | Eff. % (Pyrenophora teres) [%] | Eff. % (Podosphaera leucotricha) [%] | Eff. % (Venturia inaequalis) [%] | Eff. % [2] [%] | Eff. % (Septoria tritici) [%] | Eff. % (Puccinia triticina) [%] | Eff. % [3] [%] |
| --- | --- | --- | --- | --- | --- | --- | --- | --- | --- | --- | --- | --- |
| 4.02 | 4.02 | – | Cn1nc(C(F)F)c(C(=O)NC2CCCCC2C2CC2C2CC2)c1F (single isomer, unassigned) [Example 1, N-{2-[1,1′-bi(cyclopropyl)-2-yl]cyclohexyl}-3-(difluoromethyl)-5-fluoro-1-methyl-1H-pyrazole-4-carboxamide] | 100 | 100 | 100 | 100 | 100 | 100 | 90 | 100 | 100 |
| – | – | 3.84 | Cn1nc(C(F)F)c(C(=O)NC2CCCCC2C2CC2C2CC2)c1F (single isomer, unassigned) [Example 2, N-{2-[1,1′-bi(cyclopropyl)-2-yl]cyclohexyl}-3-(difluoromethyl)-5-fluoro-1-methyl-1H-pyrazole-4-carboxamide] | 100 | 100 | 100 | 100 | 100 | 100 | 90 | 100 | 100 |
